Publication PMC4822798 (Clinical Pharmacology : Advances and Applications, 2016)
Like-named read-outs stand apart in the source and are kept apart here.

Columns and labels:
[1] = cited from earlier work
[2] = mean population PK parameter, Japanese patients; cited from earlier work
[3] = tested on: MRSA infections; settings: cited from earlier work; for AUC24 value on the third day: ref 12 (Hagihara et al)
[4] = tested on: MRSA strains; test: Teicoplanin susceptibility testing; type: cell-based, methicillin-resistant Staphylococcus aureus; settings: Mueller-Hinton agar, E-test, 16–20 hours at 37°C
[5] = tested on: MRSA isolates; settings: all isolates, cited from earlier work
[6] = tested on: MRSA infections; test: PK/PD analysis: AUC24/MIC ratio versus bacteriological response in patients; type: in vivo, patients (human); settings: for probability of treatment success: logistic regression, 46 patients

## CN[C@H](CC(C)C)C(=O)N[C@H]1C(=O)N[C@@H](CC(N)=O)C(=O)N[C@H]2C(=O)N[C@H]3C(=O)N[C@H](C(=O)N[C@H](C(=O)O)c4cc(O)cc(O)c4-c4cc3ccc4O)[C@H](O)c3ccc(c(Cl)c3)Oc3cc2cc(c3O[C@@H]2O[C@H](CO)[C@@H](O)[C@H](O)[C@H]2O[C@H]2C[C@](C)(N)[C@H](O)[C@H](C)O2)Oc2ccc(cc2Cl)[C@H]1O [vancomycin]
[1]
  trough concentrations needed to achieve an AUC value of ≥400: 10 to 20 µg/mL
[1]; guidelines for therapeutic drug monitoring
  AUC/MIC ratio associated with clinical and bacteriological responses: ≥ 400

## teicoplanin
[2]
  distribution volume of the central compartment: 10.4 L
  transfer rate constant from the central compartment to the peripheral compartment: 0.38 h⁻¹
  transfer rate constant from the peripheral compartment to the central compartment: 0.0485 h⁻¹
[3]
  trough concentrations effective for treating most infections: > 13 µg/mL
[3]; day 3 of teicoplanin therapy, ref 14 (Ogawa et al)
  log[Cmax, unbound/MIC] threshold for achieving treatment success: 0.30
[3]; treatment failure group
  AUC24 value on the third day: 652.9 ± 83.4 µg·h/mL
[3]; treatment success group
  AUC24 value on the third day: 897.6 ± 71.7 µg·h/mL
[4]; 2.2% of the 46 MRSA strains
  MIC: 0.38 µg/mL
[4]; 6.5% of the 46 MRSA strains
  MIC: 0.5 µg/mL
[4]; 13.0% of the 46 MRSA strains
  MIC: 1.5 µg/mL
[4]; 34.8% of the 46 MRSA strains
  MIC: 1.0 µg/mL
[4]; 43.5% of the 46 MRSA strains
  MIC: 0.75 µg/mL
[5]; ref 12
  MIC: ≤ 1.0 µg/mL
[5]; ref 13
  MIC: < 2.0 µg/mL
[6]; AUC24/MIC ratio of 500 µg·h/mL on day 3
  probability of treatment success: 0.50
[6]; AUC24/MIC ratio of 700 µg·h/mL on day 3
  probability of treatment success: 0.72
[6]; AUC24/MIC ratio of 900 µg·h/mL on day 3
  probability of treatment success: 0.87
[6]; Kaplan–Meier curve analysis, P<0.05
  bacteriological response, AUC24/MIC ratios of ≥900 (n=15) versus <900 (n=31): significantly stronger bacteriological responses
[6]; patients with MRSA infections
  AUC24/MIC ratio required to ensure bacteriological responses: ≥ 900 µg·h/mL
